{"source": "Sander's compilation of Henry's law constants (doi:10.1016/s0021-9673(00)91567-x)", "data": [{"test": "Henry solubility constant Hcp at 298.15 K (mol/(m3 Pa))", "settings": "reference: Przyjazny et al. (1983)", "values": [{"smiles": "CCSCC", "note": "[diethyl sulfide]", "Henry solubility constant Hcp": 0.0054}, {"smiles": "CCCCS", "note": "[1-butanethiol]", "Henry solubility constant Hcp": 0.0022}, {"smiles": "CCCS", "note": "[1-propanethiol]", "Henry solubility constant Hcp": 0.0024}, {"smiles": "c1ccsc1", "note": "[thiophene]", "Henry solubility constant Hcp": 0.0044}, {"smiles": "CS", "note": "[methanethiol]", "Henry solubility constant Hcp": 0.0039}, {"smiles": "CC(C)SC(C)C", "note": "[di-(2-propyl)-sulfide]", "Henry solubility constant Hcp": 0.003}, {"smiles": "CCSSCC", "note": "[diethyl disulfide]", "Henry solubility constant Hcp": 0.0063}, {"smiles": "CSC", "note": "[dimethyl sulfide]", "Henry solubility constant Hcp": 0.0056}, {"smiles": "Cc1cccs1", "note": "[2-methylthiophene]", "Henry solubility constant Hcp": 0.0041}, {"smiles": "CCS", "note": "[ethanethiol]", "Henry solubility constant Hcp": 0.0028}, {"smiles": "CCCSCCC", "note": "[dipropyl sulfide]", "Henry solubility constant Hcp": 0.0033}]}]}
